Read-outs that look alike come from different tables or passages of the source.
Molecular target: T1, hVR1 receptors (Homo sapiens, UniProt Q8NER1)
T1 construct: expressed in transfected cells; host or cells: HEK293 cells (membranes)
Assay: [3H] RTX Binding Assay (inhibition of [3H] RTX binding to membranes of HEK293 cells transfected with human VR1)
Protocol: Iodinated RTX derivatives of the present invention were tested for their ability to inhibit the binding of [^3H] RTX to hVR1 receptors in a [^3H] RTX Binding Assay.
HEK293 cells were transfected with human VRI vanilloid receptors, as described in U.S. patent application Ser. No. 09/292700 to Dubin, A., et. al, filed on Apr. 15, 1999 (herein incorporated by reference), and washed with Hank's Balanced Salt Solution, dissociated with cell dissocation buffer (Sigma), and then centrifuged at 1000 x g for 5 min. Cell pellets were homogenized in cold 20 mM HEPES buffer, pH 7.4, containing 5.8 mM NaCl, 320 mM sucrose, 2 mM MgCl2, […] and 5 mM KCl and centrifuged at 1000 x g for 15 min. The resultant supernate was then centrifuged at 40,000 x g for 15 min. The pelleted membranes were kept in an −80° C. freezer.
The assay procedure was modified from that described in Szallasi, A. and Blumberg, P. M., “[^3H] Resiniferatoxin binding by the vanilloid receptor: specific-related differences, effect of temperature and sulfhydryl reagents” (Naunyn-Schmiedeberg's Arch. Pharmacol., 1993, 347, 84-91). Briefly, about 120 μg protein/ml from membranes were incubated with indicated concentrations of [^3H] RTX in 0.5 ml of the HEPES buffer (pH 7.4) containing 0.25 mg/mL fat acid-free bovine serum albumin at 37° C. for 60 min. The reaction mixture was then cooled to 4° C., added 0.1 mg α1-acid glycoprotein to each sample and incubated at 4° C. for 15 min. The samples were centrifuged at 18500 x g for 15 min. The tip of the microcentrifuge tube containing the pellet was cut off. Bound radioactivity was quantified by scintillation counting. Non-specific binding was tested in the presence of 200 nM unlabeled RTX.
Membrane Incubation with [^3H] RTX and lodinated RTX Derivatives
Membranes were incubated with [^3H] RTX (0.4 nM) and varying concentrations of iodinated RTX derivatives at 37° C. for 60 min. […] RTX binding.

T1 sequence (Q8NER1 whole entry): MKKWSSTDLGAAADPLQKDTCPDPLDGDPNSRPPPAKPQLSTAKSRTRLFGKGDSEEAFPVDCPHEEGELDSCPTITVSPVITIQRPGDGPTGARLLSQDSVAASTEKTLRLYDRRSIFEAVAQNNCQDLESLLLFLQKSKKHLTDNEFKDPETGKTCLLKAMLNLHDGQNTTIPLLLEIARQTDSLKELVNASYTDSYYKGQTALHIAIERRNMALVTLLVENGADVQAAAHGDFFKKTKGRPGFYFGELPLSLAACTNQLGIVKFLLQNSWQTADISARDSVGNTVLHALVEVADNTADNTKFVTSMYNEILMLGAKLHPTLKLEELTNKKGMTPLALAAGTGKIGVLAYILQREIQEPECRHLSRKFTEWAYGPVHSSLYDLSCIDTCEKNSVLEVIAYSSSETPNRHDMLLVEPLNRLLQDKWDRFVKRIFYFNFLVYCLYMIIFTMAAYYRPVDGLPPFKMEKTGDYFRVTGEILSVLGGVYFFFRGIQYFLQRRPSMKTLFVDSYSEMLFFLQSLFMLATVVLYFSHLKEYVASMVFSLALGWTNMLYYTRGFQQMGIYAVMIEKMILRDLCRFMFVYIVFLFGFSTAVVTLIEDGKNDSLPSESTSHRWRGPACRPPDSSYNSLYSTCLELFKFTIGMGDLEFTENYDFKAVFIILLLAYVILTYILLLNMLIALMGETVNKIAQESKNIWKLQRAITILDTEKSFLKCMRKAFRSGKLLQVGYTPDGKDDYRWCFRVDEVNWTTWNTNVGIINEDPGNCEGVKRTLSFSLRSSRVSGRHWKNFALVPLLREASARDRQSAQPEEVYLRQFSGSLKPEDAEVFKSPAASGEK

Row | SMILES | IC50 | IC50 ([3H] RTX 0.4 nM, 37° C. for 60 min, HEK293 membranes, two experiments, each point in duplicate, read-out: IC50 Value for Binding to a hVR1 Receptor)
1 | C=C(C)C12CC(C)C34OC(Cc5ccccc5)(OC1C3C=C(COC(=O)Cc1cc(OC)c(O)cc1I)CC1(O)C(=O)C(C)=CC14)O2 (stereo not drawn) [Compound 2, 9,13,14-Orthophenylacetylresiniferonyl-20-(3-hydroxy-4-methoxy-6-iodophenylacetate)] | 220 ± 30 pM | 
2 | C=C(C)C12CC(C)C34OC(Cc5ccccc5)(OC1C3C=C(COC(=O)Cc1cc(OC)c(OC(C)=O)cc1I)CC1(O)C(=O)C(C)=CC14)O2 (stereo not drawn) [Compound 1, 9,13,14-Orthophenylacetylresiniferonyl-20-(3-acetoxy-4-methoxy-6-Iodophenylacetate)] | 310 ± 60 pM | 
3 | C=C(C)[C@]12C[C@@H](C)[C@@]34O[C@](Cc5ccccc5)(O[C@@H]1[C@@H]3C=C(COC(=O)Cc1ccc(O)c(OC)c1)C[C@]1(O)C(=O)C(C)=C[C@@H]41)O2 [RTX, resiniferatoxin] |  | 90 ± 120 pM
